From patent US20100143364A1, “Chimeric Antibodies, Compositions and Methods for Treating Cocaine-Related Disorders” (Vybion, Inc., priority 2008, published 2010)

Test: pharmacokinetics of cocaine in plasma after i.v. cocaine HCl
Type: in vivo
Details: 2-compartment model, no antibody, i.v. cocaine HCl 0.56 mg/kg
Experimental: The monoclonal antibodies, variants and/or derivatives of the present invention use their binding affinity for cocaine and its derivatives to reduce the concentration of cocaine or its derivatives in the brain. Infused antibodies, variants and/or derivatives also produce a dramatic dose-dependent increase in plasma cocaine concentrations and a concomitant decrease in the brain cocaine concentrations produced by an i.v. injection of cocaine HCI (0.56 mg/kg). […] The anti-cocaine antibodies, variants and/or derivatives of the invention increase the area under the plasma cocaine concentration-time curve (AUC) relative to the AUC in the absence of the anti-cocaine antibodies of the invention. The antibodies, variants and/or derivatives of the present invention decrease cocaine's volume of distribution (l/kg). However, cocaine is still rapidly cleared from plasma and its elimination is described by a single compartment model. The antibodies, variants and/or derivatives also produce a decrease in the cocaine AUC in the brain. Therefore, the effect of the antibodies on plasma and brain cocaine concentrations is predominantly due to a change in the distribution of cocaine with negligible effects on its rate of clearance.

COC(=O)[C@H]1[C@@H](OC(=O)c2ccccc2)C[C@@H]2CC[C@H]1N2C [cocaine]
distribution t1/2α: 1.9 min | terminal elimination t1/2β: 26.1 min
